Measured values from ChEMBL document CHEMBL1955863, “Intramolecular hydrogen bonding: a potential strategy for more bioavailable inhibitors of neuronal nitric oxide synthase” (Bioorg Med Chem, 2012).

What was measured:
Nitric oxide synthase 1 [1] = target: T1, Nitric oxide synthase 1 (Rattus norvegicus, UniProt P29476); experiment: Inhibition of recombinant rat nNOS expressed in Escherichia coli by hemoglobin capture assay
Nitric oxide synthase 1 [2] = target: T1, Nitric oxide synthase 1; experiment: Inhibition of rat nNOS expressed in HEK293T cells preincubated for 30 mins prior A23187-induced activation measured after 6 hrs by Griess assay; type: cell-based, HEK-293T
[3] = Selectivity ratio of Ki for bovine eNOS to Ki for rat nNOS
[4] = Selectivity ratio of Ki for mouse iNOS to Ki for rat nNOS

T1 sequence (P29476 whole entry): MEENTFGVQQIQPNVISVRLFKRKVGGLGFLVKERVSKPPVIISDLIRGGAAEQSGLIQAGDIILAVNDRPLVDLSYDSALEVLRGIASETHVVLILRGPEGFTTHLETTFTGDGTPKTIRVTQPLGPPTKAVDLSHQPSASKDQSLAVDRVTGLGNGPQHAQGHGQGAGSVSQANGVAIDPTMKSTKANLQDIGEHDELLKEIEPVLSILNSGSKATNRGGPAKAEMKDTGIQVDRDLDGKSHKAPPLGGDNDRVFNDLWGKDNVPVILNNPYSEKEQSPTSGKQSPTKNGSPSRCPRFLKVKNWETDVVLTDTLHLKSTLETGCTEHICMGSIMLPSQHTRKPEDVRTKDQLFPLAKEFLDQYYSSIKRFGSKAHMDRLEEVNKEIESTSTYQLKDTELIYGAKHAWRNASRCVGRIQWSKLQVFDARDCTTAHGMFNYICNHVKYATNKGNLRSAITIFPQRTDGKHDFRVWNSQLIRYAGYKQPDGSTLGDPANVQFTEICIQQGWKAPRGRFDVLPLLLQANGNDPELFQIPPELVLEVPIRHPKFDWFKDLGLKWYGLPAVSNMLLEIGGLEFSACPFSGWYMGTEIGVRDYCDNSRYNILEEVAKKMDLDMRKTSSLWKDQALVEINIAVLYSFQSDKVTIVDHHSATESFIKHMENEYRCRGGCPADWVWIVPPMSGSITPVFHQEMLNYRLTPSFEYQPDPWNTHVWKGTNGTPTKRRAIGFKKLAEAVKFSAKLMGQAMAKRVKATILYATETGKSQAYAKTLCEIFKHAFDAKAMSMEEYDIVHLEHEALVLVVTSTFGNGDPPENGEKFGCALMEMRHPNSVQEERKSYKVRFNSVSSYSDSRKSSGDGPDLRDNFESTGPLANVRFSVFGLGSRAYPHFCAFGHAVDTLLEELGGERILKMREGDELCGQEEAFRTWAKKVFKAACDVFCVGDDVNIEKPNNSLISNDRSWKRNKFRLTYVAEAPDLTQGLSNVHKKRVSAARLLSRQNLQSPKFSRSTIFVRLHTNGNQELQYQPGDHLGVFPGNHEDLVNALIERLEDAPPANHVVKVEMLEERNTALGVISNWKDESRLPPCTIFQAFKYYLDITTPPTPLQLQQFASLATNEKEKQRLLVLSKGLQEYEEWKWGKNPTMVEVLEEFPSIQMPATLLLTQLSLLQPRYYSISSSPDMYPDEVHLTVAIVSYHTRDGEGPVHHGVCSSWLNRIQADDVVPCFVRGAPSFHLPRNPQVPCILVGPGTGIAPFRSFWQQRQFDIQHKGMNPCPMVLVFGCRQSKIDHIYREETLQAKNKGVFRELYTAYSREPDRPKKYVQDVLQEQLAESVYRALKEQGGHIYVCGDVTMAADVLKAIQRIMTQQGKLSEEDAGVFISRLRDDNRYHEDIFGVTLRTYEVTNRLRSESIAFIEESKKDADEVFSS

Compound	IC50 (Nitric oxide synthase 1 [1]) [µM]	IC50 (Nitric oxide synthase 1 [2]) [µM]	Ratio Ki [3]	Ratio Ki [4]
Cc1cc(C)nc(N)c1	0.05	25		
Cc1cc(N)nc(C[C@H]2CNC[C@H]2OCCNCc2ccccc2F)c1		11	98	105
Cc1cc(N)nc(C[C@H]2CNC[C@H]2OCCNCc2ccco2)c1		100	169	92

Next, values leading:

IC50 (Nitric oxide synthase 1 [1]) [µM]	IC50 (Nitric oxide synthase 1 [2]) [µM]	Ratio Ki [3]	Ratio Ki [4]	Compound
	22	93	139	COc1ccccc1CNCCO[C@@H]1CNC[C@@H]1Cc1cc(C)cc(N)n1
	43	93	143	Cc1cc(N)nc(C[C@H]2CNC[C@H]2OCCNCc2ccccc2O)c1
